In PubChem BioAssay AID1963968 (Molecular Pharmacology Branch, DTP, NCI, 2024):

Test system: 945468-187-T-J3-PDC spheroids with HUVEC/MSC, viability
Assay: Anticancer human tumor 945468-187-T-J3-PDC patient-derived rectal carcinoma cell line growth inhibition [PI3K]
Conditions: for IC50: curve of first compound; for viability, T/C: stronger effect = lower value
Outline: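 We assembled tumor spheroids that included a stromal compartment of HUVEC and MSCs, then exposed them to targeted agents alone and together with PI3K pathway inhibitors. Concentration series descended by half-log from clinically achievable Cmax levels. Viability served as the endpoint.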

[1] = second compound 0.00316 µM, first compound 0.0316 µM
[2] = second compound 0.00316 µM, first compound 0.1 µM
[3] = second compound 0.00316 µM, first compound 0.316 µM
[4] = second compound 0.00316 µM, first compound 1 µM
[5] = second compound 0.00316 µM, first compound 3.16 µM
[6] = second compound 0.00316 µM, first compound 10 µM
[7] = second compound 0.01 µM, first compound 0.0316 µM
[8] = second compound 0.01 µM, first compound 0.1 µM
[9] = second compound 0.01 µM, first compound 0.316 µM
[10] = second compound 0.01 µM, first compound 1 µM
[11] = second compound 0.01 µM, first compound 3.16 µM
[12] = second compound 0.01 µM, first compound 10 µM
[13] = second compound 0.0316 µM, first compound 0.0316 µM
[14] = second compound 0.0316 µM, first compound 0.1 µM
[15] = second compound 0.0316 µM, first compound 0.316 µM
[16] = second compound 0.0316 µM, first compound 1 µM
[17] = second compound 0.0316 µM, first compound 3.16 µM
[18] = second compound 0.0316 µM, first compound 10 µM
[19] = second compound 0.1 µM, first compound 0.0316 µM
[20] = second compound 0.1 µM, first compound 0.1 µM
[21] = second compound 0.1 µM, first compound 0.316 µM
[22] = second compound 0.1 µM, first compound 1 µM
[23] = second compound 0.1 µM, first compound 3.16 µM
[24] = second compound 0.1 µM, first compound 10 µM
[25] = second compound 0.316 µM, first compound 0.0316 µM
[26] = second compound 0.316 µM, first compound 0.1 µM
[27] = second compound 0.316 µM, first compound 0.316 µM
[28] = second compound 0.316 µM, first compound 1 µM
[29] = second compound 0.316 µM, first compound 3.16 µM
[30] = second compound 0.316 µM, first compound 10 µM
[31] = second compound 1 µM, first compound 0.0316 µM
[32] = second compound 1 µM, first compound 0.1 µM
[33] = second compound 1 µM, first compound 0.316 µM
[34] = second compound 1 µM, first compound 1 µM
[35] = second compound 1 µM, first compound 3.16 µM
[36] = second compound 1 µM, first compound 10 µM
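Further: spheroids exposed to agents for 7 days before viability read.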
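Wherever viability, T/C is given: 100% = DMSO vehicle control viability.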

CC(C)NCC(C(=O)N1CCN(c2ncnc3c2C(C)CC3O)CC1)c1ccc(Cl)cc1 (stereo unspecified) + COc1c(OCCCN2CCOCC2)ccc2c3n(c(=NC(=O)c4cnc(N)nc4)nc12)CCN3
IC50 (second compound 0.00316 µM): 3680 nM
IC50 (second compound 0.01 µM): 3740 nM
IC50 (second compound 0.0316 µM): 1850 nM
IC50 (second compound 0.1 µM): < 31.6 nM
IC50 (second compound 0.316 µM): < 31.6 nM
IC50 (second compound 1 µM): < 31.6 nM
viability, T/C [1]: 94.2%
viability, T/C [2]: 83.3%
viability, T/C [3]: 88.8%
viability, T/C [4]: 70.6%
viability, T/C [5]: 52.1%
viability, T/C [6]: 39.4%
viability, T/C [7]: 92.6%
viability, T/C [8]: 80.9%
viability, T/C [9]: 89.3%
viability, T/C [10]: 81.7%
viability, T/C [11]: 53.8%
viability, T/C [12]: 28.2%
viability, T/C [13]: 79%
viability, T/C [14]: 84.4%
viability, T/C [15]: 66.7%
viability, T/C [16]: 71.8%
viability, T/C [17]: 31.1%
viability, T/C [18]: 25.8%
viability, T/C [19]: 39%
viability, T/C [20]: 45.5%
viability, T/C [21]: 43.4%
viability, T/C [22]: 27.9%
viability, T/C [23]: 23.5%
viability, T/C [24]: 18.6%
viability, T/C [25]: 19.8%
viability, T/C [26]: 19.3%
viability, T/C [27]: 17.6%
viability, T/C [28]: 18%
viability, T/C [29]: 19.5%
viability, T/C [30]: 13.3%
viability, T/C [31]: 18.6%
viability, T/C [32]: 13.7%
viability, T/C [33]: 15.8%
viability, T/C [34]: 13.6%
viability, T/C [35]: 19.7%
viability, T/C [36]: 11.8%

C[C@@H](NC(=O)c1ncnc(N)c1Cl)c1ncc(C(=O)Nc2cc(C(F)(F)F)c(Cl)cn2)s1 + COc1c(OCCCN2CCOCC2)ccc2c3n(c(=NC(=O)c4cnc(N)nc4)nc12)CCN3
IC50 (second compound 0.00316 µM): > 10000 nM
IC50 (second compound 0.01 µM): > 10000 nM
IC50 (second compound 0.0316 µM): > 10000 nM
IC50 (second compound 0.1 µM): < 31.6 nM
IC50 (second compound 0.316 µM): < 31.6 nM
IC50 (second compound 1 µM): < 31.6 nM
viability, T/C [1]: 89.2%
viability, T/C [2]: 101%
viability, T/C [3]: 97.1%
viability, T/C [4]: 104%
viability, T/C [5]: 98.4%
viability, T/C [6]: 95.9%
viability, T/C [7]: 118%
viability, T/C [8]: 91.7%
viability, T/C [9]: 101%
viability, T/C [10]: 99.3%
viability, T/C [11]: 94.6%
viability, T/C [12]: 90.3%
viability, T/C [13]: 94.5%
viability, T/C [14]: 101%
viability, T/C [15]: 83.8%
viability, T/C [16]: 95%
viability, T/C [17]: 92%
viability, T/C [18]: 102%
viability, T/C [19]: 34.8%
viability, T/C [20]: 42.1%
viability, T/C [21]: 39%
viability, T/C [22]: 45.5%
viability, T/C [23]: 45.6%
viability, T/C [24]: 51.8%
viability, T/C [25]: 19.7%
viability, T/C [26]: 22.8%
viability, T/C [27]: 19.8%
viability, T/C [28]: 18.2%
viability, T/C [29]: 20.8%
viability, T/C [30]: 21.4%
viability, T/C [31]: 17.3%
viability, T/C [32]: 17.7%
viability, T/C [33]: 17.4%
viability, T/C [34]: 16.1%
viability, T/C [35]: 19%
viability, T/C [36]: 19.9%

Cn1ncnc1[C@H]1c2n[nH]c(=O)c3cc(F)cc(c23)N[C@@H]1c1ccc(F)cc1 + COc1c(OCCCN2CCOCC2)ccc2c3n(c(=NC(=O)c4cnc(N)nc4)nc12)CCN3
IC50 (second compound 0.00316 µM): > 100 nM
IC50 (second compound 0.01 µM): > 100 nM
IC50 (second compound 0.0316 µM): > 100 nM
IC50 (second compound 0.1 µM): < 0.316 nM
IC50 (second compound 0.316 µM): < 0.316 nM
IC50 (second compound 1 µM): < 0.316 nM
viability, T/C (second compound 0.00316 µM, first compound 0.000316 µM): 101%
viability, T/C (second compound 0.00316 µM, first compound 0.001 µM): 90.1%
viability, T/C (second compound 0.00316 µM, first compound 0.00316 µM): 88.8%
viability, T/C (second compound 0.00316 µM, first compound 0.01 µM): 92.6%
viability, T/C [1]: 117%
viability, T/C [2]: 92.8%
viability, T/C (second compound 0.01 µM, first compound 0.000316 µM): 99.3%
viability, T/C (second compound 0.01 µM, first compound 0.001 µM): 91.4%
viability, T/C (second compound 0.01 µM, first compound 0.00316 µM): 97.7%
viability, T/C (second compound 0.01 µM, first compound 0.01 µM): 92.5%
viability, T/C [7]: 101%
viability, T/C [8]: 95.4%
viability, T/C (second compound 0.0316 µM, first compound 0.000316 µM): 98.8%
viability, T/C (second compound 0.0316 µM, first compound 0.001 µM): 93.9%
viability, T/C (second compound 0.0316 µM, first compound 0.00316 µM): 84.2%
viability, T/C (second compound 0.0316 µM, first compound 0.01 µM): 86%
viability, T/C [13]: 89.2%
viability, T/C [14]: 97.6%
viability, T/C (second compound 0.1 µM, first compound 0.000316 µM): 46.5%
viability, T/C (second compound 0.1 µM, first compound 0.001 µM): 55.3%
viability, T/C (second compound 0.1 µM, first compound 0.00316 µM): 40.8%
viability, T/C (second compound 0.1 µM, first compound 0.01 µM): 49.5%
viability, T/C [19]: 42%
viability, T/C [20]: 38.8%
viability, T/C (second compound 0.316 µM, first compound 0.000316 µM): 20.3%
viability, T/C (second compound 0.316 µM, first compound 0.001 µM): 21.3%
viability, T/C (second compound 0.316 µM, first compound 0.00316 µM): 19.4%
viability, T/C (second compound 0.316 µM, first compound 0.01 µM): 22.2%
viability, T/C [25]: 21.2%
viability, T/C [26]: 18.5%
viability, T/C (second compound 1 µM, first compound 0.000316 µM): 14.1%
viability, T/C (second compound 1 µM, first compound 0.001 µM): 15.5%
viability, T/C (second compound 1 µM, first compound 0.00316 µM): 15.3%
viability, T/C (second compound 1 µM, first compound 0.01 µM): 15.7%
viability, T/C [31]: 14.8%
viability, T/C [32]: 12.6%
